Test results taken from patent US20210171503A1, “GLYCOLATE OXIDASE INHIBITORS AND USE THEREOF” (ORFAN BIOTECH INC., priority 2017, published 2021).
Counter-ions that a name gives are not always drawn.

biological target: T1, mouse glycolate oxidase (mGO) (Mus musculus, UniProt Q9WU19); test: In vitro inhibition of mouse glycolate oxidase (mGO), HRP-coupled Trinder reaction; assay type: biochemical; details: compound tested at 100 μM; 40 mM glycolic acid as substrate; activity calculated at 1 minute
T1 construct: His6 (N); made in house; host or cells: E. coli BL21 (DE3)
T1 sequence (Q9WU19 1-370): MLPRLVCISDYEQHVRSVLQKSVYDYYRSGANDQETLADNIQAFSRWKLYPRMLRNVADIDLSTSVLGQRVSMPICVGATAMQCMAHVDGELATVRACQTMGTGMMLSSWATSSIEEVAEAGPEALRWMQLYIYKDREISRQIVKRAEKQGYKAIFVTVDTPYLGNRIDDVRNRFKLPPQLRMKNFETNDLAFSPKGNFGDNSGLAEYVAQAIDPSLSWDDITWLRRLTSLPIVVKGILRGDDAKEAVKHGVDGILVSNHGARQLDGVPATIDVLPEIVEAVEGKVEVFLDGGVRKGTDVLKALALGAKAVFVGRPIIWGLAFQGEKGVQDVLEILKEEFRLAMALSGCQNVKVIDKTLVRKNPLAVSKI
Protocol: Protein expression. BL21 (DE3) E. coli transformed with recombinant pET-15b expression vector containing mouse Hao1 cDNA with an N-terminal His6 tag was grown in LB medium in the presence of 0.1 mg/mL ampicillin. For purification of recombinant mGO expressed in BL21 E. coli, bacteria pellets were thawed and re-suspended in 2 mL lysis buffer (50 mM NaH2PO4, 300 mM NaCl, 10 mM imidazole, 50 μM flavin mononucleotide (FMN), pH 7.5), and then treated for 30 minutes with 1 mM phenylmethylsulfonyl fluoride (PMSF) for protease inhibition, 0.1% Triton X-100 and 0.2 mg/mL lysozyme to break cellular membranes. After sonication, cells were centrifuged and the supernatant containing the total cellular extract (pre-column fraction) was loaded into a Ni-NTA agarose column, and incubated for 30 minutes at 4° C. to allow binding. The column was washed with two bed volumes of lysis buffer with 20 mM imidazole to eliminate unbound proteins (wash fraction). mGO was eluted using the same buffer containing 300 mM imidazole. Fractions containing purified GO were dialyzed against 300 mL of dialysis buffer (50 mM NaH2PO4, 300 mM NaCl, pH 7.5) at 4° C. with agitation overnight, and then kept at 4° C. in darkness. Protein was quantified by the bicinchoninic acid (BCA) assay.
Inhibition assays. Enzymatic activity of mGO was determined in the presence of glycolate as substrate (40 mM glycolic acid) and phosphate buffer (50 mM KPO4, 0.1 mM EDTA, pH 7). The production of glyoxylate was indirectly measured by the quantification of hydrogen peroxide formed during the first oxidation reaction. This hydrogen peroxide reacted with 4.9 mM 4-aminoantipyrine and 0.1 mM sulphonated […] in a coupled horseradish peroxidase (HRP) reaction that yields a quinoneimine dye (FIG. 1) measured at 515 nm (Trinder reaction). Enzymatic activity was calculated at 1 minute after initiation of the Trinder reaction.

Compared with `Cc1onc(C(=O)O)c1Nc1ccc(Cc2ccc(F)cc2)cc1` [Compound 54, 4-((4-(4-fluorobenzyl)phenyl)amino)-5-methylisoxazole-3-carboxylic Acid], `Cc1onc(C(=O)O)c1Nc1ccc(CCc2ccc(F)cc2)cc1` [Compound 56, 4-((4-(4-fluorophenethyl)phenyl)amino)-5-methylisoxazole-3-carboxylic Acid] is higher in inhibition at 100 µM: < 30% for the first, 30 to 60% for the second.

First: COc1ccc(CN(c2ccc(-c3ccc(C#N)cc3)cc2)c2c(C(=O)O)n[nH]c2C)cc1 [Compound 57, 4-((4′-cyano-[1,1′-biphenyl]-4-yl)(4-methoxybenzyl)amino)-5-methyl-1H-pyrazole-3-carboxylic Acid]
Second: COc1ccc(CN(c2ccc(CCc3ccc(F)cc3)cc2)c2c(C(=O)O)n[nH]c2C)cc1 [Compound 67, 4-((4-(4-Fluorophenethyl)phenyl)(4-methoxybenzyl)amino)-3-methyl-1H-pyrazole-5-carboxylic Acid]
The inhibition at 100 µM of the first is lower: 30 to 60% for the first, > 60% for the second.

Going from `Cc1[nH]nc(C(=O)O)c1Nc1ccc(Cc2ccc(OCCOC3CN(C(=O)OC(C)(C)C)C3)cc2)cc1` [Compound 59, 4-((4-(4-(2-((1-(tert-butoxycarbonyl)azetidin-3-yl)oxy)ethoxy)benzyl)phenyl)amino)-5-methyl-1H-pyrazole-3-carboxylic Acid] to `Cc1[nH]nc(C(=O)O)c1Nc1ccc(Cc2ccc(OCCC3CCN(C(=O)OC(C)(C)C)CC3)cc2)cc1` [Compound 61, 4-((4-(4-(2-(1-(tert-butoxycarbonyl)piperidin-4-yl)ethoxy)benzyl)phenyl)amino)-5-methyl-1H-pyrazole-3-carboxylic Acid], the inhibition at 100 µM rises from < 30% to > 60%.

`Cc1[nH]nc(C(=O)O)c1Nc1ccc(Cc2ccc(OCCOC3CNC3)cc2)cc1` [Compound 60, 4-((4-(4-(2-(azetidin-3-yloxy)ethoxy)benzyl)phenyl)amino)-5-methyl-1H-pyrazole-3-carboxylic Acid hydrochloride] and `Cc1[nH]nc(C(=O)O)c1Nc1ccc(Cc2ccc(OCCC3CCNCC3)cc2)cc1` [Compound 62, 5-methyl-4-((4-(4-(2-(piperidin-4-yl)ethoxy)benzyl)phenyl)amino)-1H-pyrazole-3-carboxylic Acid hydrochloride] cannot be ordered by inhibition at 100 µM: < 30% for the first, < 30% for the second.

Going from `Cc1[nH]nc(C(=O)O)c1Nc1ccc(Cc2ccc(OCCN3CCN(C(=O)OC(C)(C)C)CC3)cc2)cc1` [Compound 63, 4-((4-(4-(2-(4-(tert-butoxycarbonyl)piperazin-1-yl)ethoxy)benzyl)phenyl)amino)-5-methyl-1H-pyrazole-3-carboxylic Acid] to `CC(C)(C)OC(=O)N1CCN(CCOc2ccc(Cc3ccc(Nc4ccnnc4C(=O)O)cc3)cc2)CC1` [Compound 72 Na salt, 4-((4-(4-(2-(4-(tert-Butoxycarbonyl)piperazin-1-yl)ethoxy)-benzyl)phenyl)amino)pyridazine-3-carboxylic Acid Sodium Salt], the inhibition at 100 µM rises from < 30% to > 60%.

`Cc1[nH]nc(C(=O)O)c1Nc1ccc(Cc2ccc(OCCN3CCNCC3)cc2)cc1` [Compound 64, 5-methyl-4-((4-(4-(2-(piperazin-1-yl)ethoxy)benzyl)phenyl)amino)-1H-pyrazole-3-carboxylic Acid hydrochloride] and `Cc1[nH]nc(C(=O)O)c1Nc1ccc(Cc2ccc(OCCCCN3CCOCC3)cc2)cc1` [Compound 65, 5-methyl-4-((4-(4-(4-morpholinobutoxy)benzyl)phenyl)amino)-1H-pyrazole-3-carboxylic Acid] cannot be ordered by inhibition at 100 µM: < 30% for the first, < 0% for the second.

Going from `Cc1[nH]nc(C(=O)O)c1Nc1ccc(CCc2ccc(F)cc2)cc1` [Compound 66, 4-((4-(4-Fluorophenethyl)phenyl)amino)-3-methyl-1H-pyrazole-5-carboxylic Acid] to `CCCCCC(Sc1c(C(=O)O)n[nH]c1C)c1ccc(F)cc1` (stereo not drawn) [Compound 79, 4-((1-(4-Fluorophenyl)hexyl)thio)-5-methyl-1H-pyrazole-3-carboxylic Acid], the inhibition at 100 µM rises from < 30% to > 60%.

`CC(C)(C)OC(=O)N1CC(OCCOc2ccc(Cc3ccc(Nc4ccnnc4C(=O)O)cc3)cc2)C1` [Compound 68 Na salt, 4-((4-(4-(2-((1-(tert-butoxycarbonyl)azetidin-3-yl)oxy)ethoxy)benzyl)phenyl)amino)pyridazine-3-carboxylic Acid sodium Salt] and `CC(C)(C)OC(=O)N1CCC(CCOc2ccc(Cc3ccc(Nc4ccnnc4C(=O)O)cc3)cc2)CC1` [Compound 70, 4-((4-(4-(2-(1-(tert-Butoxycarbonyl)piperidin-4-yl)ethoxy)benzyl)phenyl)amino)pyridazine-3-carboxylic Acid] cannot be ordered by inhibition at 100 µM: > 60% for the first, > 60% for the second.

`O=C(O)c1nnccc1Nc1ccc(Cc2ccc(OCCC3CCNCC3)cc2)cc1` [Compound 71, 4-((4-(4-(2-(Piperidin-4-yl)ethoxy)benzyl)phenyl)amino)-pyridazine-3-carboxylic Acid hydrochloride] and `CCCCCC(Sc1ccnnc1C(=O)O)c1ccc(F)cc1` (stereo not drawn) [Compound 77, 4-((1-(4-Fluorophenyl)hexyl)thio)pyridazine-3-carboxylic Acid] fall in the same range of inhibition at 100 µM: 30 to 60% for the first, 30 to 60% for the second.

First: CCCCCC(Sc1c(C(=O)O)noc1C)c1ccc(F)cc1 (stereo not drawn) [Compound 75, 4-((1-(4-fluorophenyl)hexyl)thio)-5-methylisoxazole-3-carboxylic Acid]
Second: CCCC/C=C(/SC1=C(C(=O)O)NNC=C1)c1ccc(F)cc1 [Compound 78, (E)-4-((1-(4-Fluorophenyl)hex-1-en-1-yl)thio)-1,2-dihydropyridazine-3-carboxylic Acid]
The inhibition at 100 µM of the first is higher: 30 to 60% for the first, < 30% for the second.

In the case of `O=C(O)c1nnccc1SCc1ccccc1` [Compound 76, 4-(Benzylthio)pyridazine-3-carboxylic Acid], the inhibition at 100 µM was < 30%.
